Columns and labels:
late watergrass = test: Test Example 1: herbicidal activity, application before weed generation under submerged conditions (Table 16, symbol A); format: in vivo, late watergrass (Echinochloa oryzicola)
Outline: (§1)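 Emulsion formulation, water-diluted to set dose, was put onto the flooded surface (4 cm depth, alluvial soil) the same day weeds were sown and 2.5-leaf rice transplanted. After 3 weeks at 25-30 °C under glass, each species was rated 0 (≤5% kill) to 5 (≥90% kill).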

chickweed [1] = test: Test Example 4: herbicidal effect by soil treatment (Table 19, symbol P); format: in vivo, common chickweed (Stellaria media)
Outline: (§2)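 Step 1: sow seeds in sterilized diluvial soil, cover ~1.5 cm. Step 2: spray diluted emulsion onto soil surface at predetermined rate. Step 3: greenhouse, 25–30° C, three weeks. Step 4: grade effect on each plant by earlier criteria.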

green foxtail [2] = test: Test Example 4: herbicidal effect by soil treatment (Table 19, symbol G); format: in vivo, green foxtail (Setaria viridis)
Outline: as §2

redroot pigweed [3] = test: Test Example 5: herbicidal effect by foliage application, plastic box (Table 20, symbol N); format: in vivo, redroot pigweed (Amaranthus retroflexus)
Outline: (§3)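 Foliar spray test: emulsion formulation diluted in water to a set application rate, sprayed onto 14-day-old plants raised in diluvial soil at 25° C to 30° C under glass. Both herbicidal effect and crop effect rated visually three weeks later.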

wild oat [4] = test: Test Example 4: herbicidal effect by soil treatment (Table 19, symbol I); format: in vivo, wild oat (Avena fatua)
Outline: as §2

southern crabgrass [5] = test: Test Example 4: herbicidal effect by soil treatment (Table 19, symbol F); format: in vivo, southern crabgrass (Digitaria ciliaris)
Outline: as §2

barnyard grass [6] = test: Test Example 5: herbicidal effect by foliage application, plastic box (Table 20, symbol H); format: in vivo, barnyard grass (Echinochloa crus-galli)
Outline: as §3

velvetleaf [7] = test: Test Example 5: herbicidal effect by foliage application, plastic box (Table 20, symbol M); format: in vivo, velvetleaf (Abutilon theophrasti)
Outline: as §3

barnyard grass [8] = test: Test Example 3: herbicidal effect by foliage application, Wagner pot (Table 18, symbol H); format: in vivo, barnyard grass (Echinochloa crus-galli); conditions: 320 g/ha
Outline: (§4)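 Plants were sown in alluvial soil held under 0.1–0.5 cm standing water and grown 14 days in a greenhouse at 25–30 °C. An emulsifiable formulation, water-diluted to the set dose, was then sprayed onto the foliage, and effects were scored three weeks later using previously defined criteria.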

southern crabgrass [9] = test: Test Example 5: herbicidal effect by foliage application, plastic box (Table 20, symbol F); format: in vivo, southern crabgrass (Digitaria ciliaris)
Outline: as §3

barnyard grass [10] = test: Test Example 4: herbicidal effect by soil treatment (Table 19, symbol H); format: in vivo, barnyard grass (Echinochloa crus-galli)
Outline: as §2

windgrass [11] = test: Test Example 5: herbicidal effect by foliage application, plastic box (Table 20, symbol L); format: in vivo, windgrass (Apera spica-venti)
Outline: as §3

persian speedwell [12] = test: Test Example 4: herbicidal effect by soil treatment (Table 19, symbol R); format: in vivo, Persian speedwell (Veronica persica)
Outline: as §2

Italian ryegrass [13] = test: Test Example 5: herbicidal effect by foliage application, plastic box (Table 20, symbol K); format: in vivo, Italian ryegrass (Lolium multiflorum)
Outline: as §3

velvetleaf [14] = test: Test Example 4: herbicidal effect by soil treatment (Table 19, symbol M); format: in vivo, velvetleaf (Abutilon theophrasti)
Outline: as §2

windgrass [15] = test: Test Example 4: herbicidal effect by soil treatment (Table 19, symbol L); format: in vivo, windgrass (Apera spica-venti)
Outline: as §2

Chinese sprangletop = test: Test Example 3: herbicidal effect by foliage application, Wagner pot (Table 18, symbol D); format: in vivo, chinese sprangletop (Leptochloa chinensis); conditions: 320 g/ha
Outline: as §4

chickweed [16] = test: Test Example 5: herbicidal effect by foliage application, plastic box (Table 20, symbol P); format: in vivo, common chickweed (Stellaria media)
Outline: as §3

lambsquarters [17] = test: Test Example 4: herbicidal effect by soil treatment (Table 19, symbol O); format: in vivo, lambsquarters (Chenopodium album)
Outline: as §2

persian speedwell [18] = test: Test Example 5: herbicidal effect by foliage application, plastic box (Table 20, symbol R); format: in vivo, Persian speedwell (Veronica persica)
Outline: as §3

wild oat [19] = test: Test Example 5: herbicidal effect by foliage application, plastic box (Table 20, symbol I); format: in vivo, wild oat (Avena fatua)
Outline: as §3

Japanese bulrush = test: Test Example 1: herbicidal activity, application before weed generation under submerged conditions (Table 16, symbol B); format: in vivo, Japanese bulrush (Schoenoplectus juncoides)
Outline: as §1

green foxtail [20] = test: Test Example 5: herbicidal effect by foliage application, plastic box (Table 20, symbol G); format: in vivo, green foxtail (Setaria viridis)
Outline: as §3

oval-leafed pondweed = test: Test Example 1: herbicidal activity, application before weed generation under submerged conditions (Table 16, symbol C); format: in vivo, oval-leafed pondweed (Monochoria vaginalis)
Outline: as §1

redroot pigweed [21] = test: Test Example 4: herbicidal effect by soil treatment (Table 19, symbol N); format: in vivo, redroot pigweed (Amaranthus retroflexus)
Outline: as §2

Italian ryegrass [22] = test: Test Example 4: herbicidal effect by soil treatment (Table 19, symbol K); format: in vivo, Italian ryegrass (Lolium multiflorum)
Outline: as §2

rice flat sedge = test: Test Example 3: herbicidal effect by foliage application, Wagner pot (Table 18, symbol E); format: in vivo, rice flat sedge (Cyperus iria); conditions: 320 g/ha
Outline: as §4

blackgrass = test: Test Example 5: herbicidal effect by foliage application, plastic box (Table 20, symbol J); format: in vivo, blackgrass (Alopecurus myosuroides)
Outline: as §3

lambsquarters [23] = test: Test Example 5: herbicidal effect by foliage application, plastic box (Table 20, symbol O); format: in vivo, lambsquarters (Chenopodium album)
Outline: as §3

[24] = foliage application, AAH 320 g/ha, three weeks after application
[25] = amount of applied herbicide 320 g/ha
[26] = amount of applied herbicide 320 g/ha, foliage application after 14-day growth, evaluated three weeks after application

For `CCCC(=O)Oc1c(C)nn(C)c(=O)c1-c1c(-c2ccccc2OCOC)sc2ccccc12` [1-115], the “Herbicidal effect on A: late watergrass (grade 0-5)” value (late watergrass; 320 g/ha applied herbicide) was 2 (Herbicidal rate of 20% or more and less than 40%), the “P: chickweed, herbicidal effect rating” value (chickweed [1]; AAH 320 g/ha) was 0 (Herbicidal rate of 5% or less (almost no effect)) and the “G: green foxtail, herbicidal effect rating” value (green foxtail [2]; AAH 320 g/ha) was 0 (Herbicidal rate of 5% or less (almost no effect)). For the same compound, the “N: redroot pigweed, herbicidal effect” value (redroot pigweed [3]; [24]) was 5 (Herbicidal rate of 90% or more (almost completely withered)), the “I: wild oat, herbicidal effect rating” value (wild oat [4]; AAH 320 g/ha) was 0 (Herbicidal rate of 5% or less (almost no effect)) and the “F: southern crabgrass, herbicidal effect rating” value (southern crabgrass [5]; AAH 320 g/ha) was 0 (Herbicidal rate of 5% or less (almost no effect)). The “H: barnyard grass, herbicidal effect” value (barnyard grass [6]; [24]) was 2 (Herbicidal rate of 20% or more and less than 40%), the “M: velvetleaf, herbicidal effect” value (velvetleaf [7]; [24]) was 3 (Herbicidal rate of 40% or more and less than 70%) and the “herbicidal effect on H (barnyard grass), rating 0-5” value (barnyard grass [8]) was 4 (Herbicidal rate of 70% or more and less than 90%). The “F: southern crabgrass, herbicidal effect” value (southern crabgrass [9]; [24]) was 4 (Herbicidal rate of 70% or more and less than 90%), the “H: barnyard grass, herbicidal effect rating” value (barnyard grass [10]; AAH 320 g/ha) was 2 (Herbicidal rate of 20% or more and less than 40%) and the “L: windgrass, herbicidal effect” value (windgrass [11]; [24]) was 4 (Herbicidal rate of 70% or more and less than 90%). For the same compound, the “R: persian speedwell, herbicidal effect rating” value (persian speedwell [12]; AAH 320 g/ha) was 0 (Herbicidal rate of 5% or less (almost no effect)), the “K: Italian ryegrass, herbicidal effect” value (Italian ryegrass [13]; [24]) was 0 (Herbicidal rate of 5% or less (almost no effect)) and the “M: velvetleaf, herbicidal effect rating” value (velvetleaf [14]; AAH 320 g/ha) was 0 (Herbicidal rate of 5% or less (almost no effect)). The “L: windgrass, herbicidal effect rating” value (windgrass [15]; AAH 320 g/ha) was 0 (Herbicidal rate of 5% or less (almost no effect)), the “herbicidal effect on D (Chinese sprangletop), rating 0-5” value (Chinese sprangletop) was 2 (Herbicidal rate of 20% or more and less than 40%) and the “P: chickweed, herbicidal effect” value (chickweed [16]; [24]) was 5 (Herbicidal rate of 90% or more (almost completely withered)). The “O: lambsquarters, herbicidal effect rating” value (lambsquarters [17]; AAH 320 g/ha) was 0 (Herbicidal rate of 5% or less (almost no effect)), the “R: persian speedwell, herbicidal effect” value (persian speedwell [18]; [24]) was 2 (Herbicidal rate of 20% or more and less than 40%) and the “I: wild oat, herbicidal effect” value (wild oat [19]; [24]) was 2 (Herbicidal rate of 20% or more and less than 40%). For the same compound, the “Herbicidal effect on B: Japanese bulrush (grade 0-5)” value (Japanese bulrush; 320 g/ha applied herbicide) was 0 (Herbicidal rate of 5% or less (almost no effect)), the “G: green foxtail, herbicidal effect” value (green foxtail [20]; [24]) was 4 (Herbicidal rate of 70% or more and less than 90%) and the “Herbicidal effect on C: oval-leafed pondweed (grade 0-5)” value (oval-leafed pondweed; 320 g/ha applied herbicide) was 2 (Herbicidal rate of 20% or more and less than 40%). For the same compound, the “N: redroot pigweed, herbicidal effect rating” value (redroot pigweed [21]; AAH 320 g/ha) was 3 (Herbicidal rate of 40% or more and less than 70%), the “K: Italian ryegrass, herbicidal effect rating” value (Italian ryegrass [22]; AAH 320 g/ha) was 0 (Herbicidal rate of 5% or less (almost no effect)) and the “herbicidal effect on E (rice flat sedge), rating 0-5” value (rice flat sedge) was 2 (Herbicidal rate of 20% or more and less than 40%). The “J: blackgrass, herbicidal effect” value (blackgrass; [24]) was 4 (Herbicidal rate of 70% or more and less than 90%) and the “O: lambsquarters, herbicidal effect” value (lambsquarters [23]; [24]) was 2 (Herbicidal rate of 20% or more and less than 40%).

In the case of `COCOc1ccccc1-c1sc2c(Cl)cccc2c1-c1c(O)c(C)nn(C)c1=O` [4-083], the “Herbicidal effect, A: late watergrass” value (late watergrass; [25]) is reported as 3 (Herbicidal rate of 40% or more and less than 70%), the “Herbicidal effect by soil treatment, P: chickweed” value (chickweed [1]; [25]) is reported as 3 (Herbicidal rate of 40% or more and less than 70%) and the “Herbicidal effect by soil treatment, G: green foxtail” value (green foxtail [2]; [25]) is reported as 0 (Herbicidal rate of 5% or less (almost no effect)). For the same compound, the “Herbicidal effect by foliage application, N: redroot pigweed” value (redroot pigweed [3]; [26]) was 1 (Herbicidal rate of 5% or more and less than 20%), the “Herbicidal effect by soil treatment, I: wild oat” value (wild oat [4]; [25]) was 0 (Herbicidal rate of 5% or less (almost no effect)) and the “Herbicidal effect by soil treatment, F: southern crabgrass” value (southern crabgrass [5]; [25]) was 0 (Herbicidal rate of 5% or less (almost no effect)). The “Herbicidal effect by foliage application, H: barnyard grass” value (barnyard grass [6]; [26]) was 4 (Herbicidal rate of 70% or more and less than 90%), the “Herbicidal effect by foliage application, M: velvetleaf” value (velvetleaf [7]; [26]) was 3 (Herbicidal rate of 40% or more and less than 70%) and the “herbicidal effect on barnyard grass (H)” value (barnyard grass [8]) was 5 (Herbicidal rate of 90% or more (almost completely withered)). For the same compound, the “Herbicidal effect by foliage application, F: southern crabgrass” value (southern crabgrass [9]; [26]) was 3 (Herbicidal rate of 40% or more and less than 70%), the “Herbicidal effect by soil treatment, H: barnyard grass” value (barnyard grass [10]; [25]) was 1 (Herbicidal rate of 5% or more and less than 20%) and the “Herbicidal effect by foliage application, L: windgrass” value (windgrass [11]; [26]) was 4 (Herbicidal rate of 70% or more and less than 90%). The “Herbicidal effect by soil treatment, R: persian speedwell” value (persian speedwell [12]; [25]) was 3 (Herbicidal rate of 40% or more and less than 70%), the “Herbicidal effect by foliage application, K: Italian ryegrass” value (Italian ryegrass [13]; [26]) was 0 (Herbicidal rate of 5% or less (almost no effect)) and the “Herbicidal effect by soil treatment, M: velvetleaf” value (velvetleaf [14]; [25]) was 1 (Herbicidal rate of 5% or more and less than 20%). The “Herbicidal effect by soil treatment, L: windgrass” value (windgrass [15]; [25]) was 0 (Herbicidal rate of 5% or less (almost no effect)), the “herbicidal effect on Chinese sprangletop (D)” value (Chinese sprangletop) was 4 (Herbicidal rate of 70% or more and less than 90%) and the “Herbicidal effect by foliage application, P: chickweed” value (chickweed [16]; [26]) was 5 (Herbicidal rate of 90% or more (almost completely withered)). For the same compound, the “Herbicidal effect by soil treatment, O: lambsquarters” value (lambsquarters [17]; [25]) was 0 (Herbicidal rate of 5% or less (almost no effect)), the “Herbicidal effect by foliage application, R: persian speedwell” value (persian speedwell [18]; [26]) was 5 (Herbicidal rate of 90% or more (almost completely withered)) and the “Herbicidal effect by foliage application, I: wild oat” value (wild oat [19]; [26]) was 0 (Herbicidal rate of 5% or less (almost no effect)). For the same compound, the “Herbicidal effect, B: Japanese bulrush” value (Japanese bulrush; [25]) was 0 (Herbicidal rate of 5% or less (almost no effect)), the “Herbicidal effect by foliage application, G: green foxtail” value (green foxtail [20]; [26]) was 3 (Herbicidal rate of 40% or more and less than 70%) and the “Herbicidal effect, C: oval-leafed pondweed” value (oval-leafed pondweed; [25]) was 0 (Herbicidal rate of 5% or less (almost no effect)). For the same compound, the “Herbicidal effect by soil treatment, N: redroot pigweed” value (redroot pigweed [21]; [25]) was 3 (Herbicidal rate of 40% or more and less than 70%), the “Herbicidal effect by soil treatment, K: Italian ryegrass” value (Italian ryegrass [22]; [25]) was 0 (Herbicidal rate of 5% or less (almost no effect)) and the “herbicidal effect on rice flat sedge (E)” value (rice flat sedge) was 5 (Herbicidal rate of 90% or more (almost completely withered)). The “Herbicidal effect by foliage application, J: blackgrass” value (blackgrass; [26]) was 0 (Herbicidal rate of 5% or less (almost no effect)) and the “Herbicidal effect by foliage application, O: lambsquarters” value (lambsquarters [23]; [26]) was 1 (Herbicidal rate of 5% or more and less than 20%).
